One series concerns C. neoformans H99. The series is described as follows: Checkerboard assay. Conditions: for MIC: Cryptococcus neoformans, H99, 48 h. The series is classed as cell-based, Cryptococcus neoformans. As for the experimental part:
Compounds were initially dissolved in DMSO and diluted in RPMI-1640-MOPS media four times the targeted final concentration and 50 μl was added per well. The second compound was similarly diluted and 50 μl was added per well, to a final volume of 100 μl/well. C. neoformans […] inoculum (100 μl) prepared from freshly grown cultures and diluted to an absorbance of 0.1 at 530 nm in water and further diluted (1:500) in RPMI-1640-MOPS was added to each well. To determine the fungicidal concentration of a compound, the wells with no visible growth were serially diluted, plated on SDA, and incubated at 30° C. for 48-72 h for the recovery of colony-forming units. Additionally, the cell density of treated and untreated wells was also estimated by reading absorbance at 630 nm using an EL808 reader (Bio-Tek). Percentage of inhibition compared to that of the no-drug-control well was calculated. […] Fractional inhibitory concentration (FIC) index value is calculated as the […]. The FIC index value is then used to categorize the interaction of the two compounds tested. […] Doern, C., “When Does 2 plus 2 Equal 5?A Review of Antimicrobial Synergy Testing,” Journal of Clinical Microbiology 52(12):4124-4128 (2014), which is hereby incorporated by reference in its entirety.

The next series relates to C. neoformans. Kind of series: Sensititre YeastOne Y09 AST drug combination assay. Conditions: 6G-318S at 0.16 ug/ml, C. neoformans H99. The series is classed as cell-based, Cryptococcus neoformans. As for the experimental part: Sensititre YeastOne Y09 AST assay—Fungal susceptibility to a combination of compounds was carried out using the Sensititre YeastOne Y09 AST assay kit (Thermofisher), according to the manufacturer's manual. Briefly, fungal C. neoformans cells in exponential growth phase were diluted to a final OD530 of 0.1. Then 20 μl diluted cells were further diluted into 10 ml YPD as a stock. […] The stock C. neoformans (100 μl, ˜200 cells) were dispensed into the compound-ready 96-well plate. The fungal cells (treated or with DMF) were incubated at 30° C. for 48 h. The cell cultures were visualized by naked eye. The MIC break points were determined according to manufacturer's instructions.

The target of the next series is T1, papain (Carica papaya, UniProt P00784).
T1 construct: purchased Sigma-Aldrich
T1 sequence (P00784 134-345): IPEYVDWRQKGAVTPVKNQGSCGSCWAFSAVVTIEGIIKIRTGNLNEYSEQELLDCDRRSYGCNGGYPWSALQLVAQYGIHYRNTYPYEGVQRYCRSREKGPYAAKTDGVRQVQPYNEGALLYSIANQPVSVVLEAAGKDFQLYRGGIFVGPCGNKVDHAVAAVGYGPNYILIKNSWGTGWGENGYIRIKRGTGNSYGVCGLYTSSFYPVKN
The series is described as follows: Papain protease inhibition (Abz FRET substrate). Type of series: biochemical. Conditions: compound at 400 μM. The protocol: (§1) Trypsin and papain protease inhibition—An Abz FRET substrate (Abz-RRRRSAG-nTyr) developed previously (Li et al., “Existing Drugs as Broad-Spectrum and Potent Inhibitors for Zika Virus by Targeting NS2B-NS3 Interaction,” Cell Research 27(8):1046-1064 (2017), which is hereby incorporated by reference in its entirety) was used as the substrate for inhibition of trypsin and papain proteases. In black and clear-bottom 96-well plates, 1 μg trypsin (Sigma-Aldrich) was incubated with DMF or compounds at 400 μM at 25° C. for 30 min in a 70 μl reaction buffer containing 20 mM Tris, pH 8.0, 100 mM NaCl, 5% Glycerol, and 0.05% CHAPS. For papain, 1 μg Papain (Sigma-Aldrich) was incubated with compounds at 400 μM at 25° C. for 30 min in a 70 μl reaction buffer composed of 1.1 mM EDTA, 0.067 mM β-mercaptoethanol, 5.5 mM cysteine. […]

The next series deals with trypsin. The series is described as follows: Trypsin protease inhibition (Abz FRET substrate). The following applies: compound at 400 μM. Type of series: biochemical. As for the experimental part: as §1
In the next series the test system is Candida albicans. Kind of series: Fungal susceptibility test, broth microdilution MIC. Type of series: cell-based. Conditions: microdilution assay. As for the experimental part: Fungal susceptibility test—The fungal susceptibility test was carried out with a compound concentration series as described. Li et al., “Cisplatin Protects Mice From Challenge of Cryptococcus neoformans by Targeting the Prp8 Intein,” Emerging Microbes & Infections 8(1):895-908 (2019), which is hereby incorporated by reference in its entirety. The broth microdilution method was used to determine the compound MIC values against C. neoformans. In brief, serial 2-fold dilutions of the 6G-318SS (20 to 0.03 μg/ml) were made in 100 μl RPMI-1640 medium with MOPS in 96-well U-bottom plates. The C. neoformans H99 strain (100 μl of 0.5×10^5/ml) in log phase was added to each well. […] The MIC break-point was defined as no visible fungal growth by naked eye or by determining the 90% growth inhibition using absorbance at 630 nm, compared with no inhibitor control in a 96-well plate.
C. albicans, a fungus without the Prp8 intein, was also used as a control.
(In general: Broth dilution looks for growth in wells or tubes with falling amounts of substance.)

The nature of another series: in vitro. Type of series: cell-based, human. The following applies: human, CC50 A549. In a few lines: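 A549 cells (5×10^3 per well) were exposed to compounds at 37 °C for 48 h, and viability was read by MTT assay; N=3.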
Another series concerns C. neoformans H99 strain. The series is described as follows: Fungal susceptibility test, broth microdilution MIC. The series is classed as cell-based, Cryptococcus neoformans. Conditions: Cryptococcus neoformans, H99STRAIN; H99 strain, 48 h, 30° C.; read-out: MIC C. neoformans. The essentials:
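Compound MICs were determined by broth microdilution using a compound concentration series.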

Another series addresses Prp8 intein (Cryptococcus gattii, UniProt E6R027). Kind of series: Split GFP-Prp8i intein splicing assay. The series is classed as biochemical. As for the experimental part: Cloning, expression and purfication—The split GFP-Prp8i was constructed using a mega-PCR mutagenesis approach. […] After digestion with Dpn I restriction enzyme, the PCR product was transformed into DH5α Escherichia coli. Clones were verified by plasmid DNA sequencing. The expression, refolding and purification of the GFP-Prp8i fusion protein were carried out as described previously.
[…] Then 100 μl 2×TCEP was added to a final concentration of 20 μM. The reactions were incubated at 25° C. overnight. […] Two readings were taken, one prior to addition of TCEP (I0) and one after incubation overnight with TCEP (If). Fluorescence/luminescence differences (ΔFluorescence or ΔLuminescence) were defined as If−I0 for each well. […] DMF control served as 100% splicing activity.
Split GFP-Prp8 and CJGFP-Prp8 intein splicing assays—Using black and clear bottom 96-well plates, the DPNB-treated, -refolded and -concentrated GFP-Prp8 or CfGFP-Prp8 fusion protein (0.5 μM) was incubated with compounds or Dimethylsulfoxide (DMSO) solvent control for 30 min at 25° C. in a 100 μl intein splicing buffer (20 mM Bis-tris propane, 0.5 M NaCl, 0.5 M arginine, 1 mM EDTA, and 0.05% CHAPS). Then 100 μl 2×TCEP was added to a final concentration of 20 μM. The reactions were incubated at 25° C. overnight. […] Two readings were taken, one prior to addition of TCEP (I0) and one after incubation overnight with TCEP (If). Fluorescence/luminescence differences (ΔFluorescence or ΔLuminescence) were defined as If−I0 for each well. […] DMSO control served as 100% splicing activity.

≈ marks a conversion by molar mass, not a printed value. Where “and” joins values, the source holds several entries; their conditions need not be identical. Equal values may be shown once. Numbered stars: 1 amine (or outer) side, 2 acyl side, 3 side chain; on linkers, the order of the positions; unused ones are H or OH. Bridge positions count the residues as written; N and C are the ends. Square brackets hold non-standard residues; d marks the D form. Peptide text beside a SMILES is read from it. * marks the point of attachment. hTyr(3S-OH,4S-OH,3'-OSO3H) = N[C@H](C(=O)O)[C@H](O)[C@@H](O)c1ccc(O)c(OS(=O)(=O)O)c1; pTerphenylCO(4''-OnC5H11) = CCCCCOc1ccc(-c2ccc(-c3ccc(C(=O)*)cc3)cc2)cc1; Orn(4R-OH,5R-OH) = O=C([C@H](C[C@@H](O)[C@@H](O)N[*:3])N[*:1])[*:2]; hTyr(3S-OH,4S-OH) = N[C@H](C(=O)O)[C@H](O)[C@@H](O)c1ccc(O)cc1; Pro(3S-OH,4S-Me) = C[C@H]1CN[C@H](C(=O)O)[C@H]1O; X1 = CCCCCOc1ccc(-c2cc(-c3ccc(C(=O)*)cc3)no2)cc1; Gln(3R-OH) = NC(=O)C[C@@H](O)[C@H](N)C(=O)O; Hyp = O=C(O)[C@@H]1C[C@@H](O)CN1

Sequence of Prp8 intein (E6R027 entry or part of it): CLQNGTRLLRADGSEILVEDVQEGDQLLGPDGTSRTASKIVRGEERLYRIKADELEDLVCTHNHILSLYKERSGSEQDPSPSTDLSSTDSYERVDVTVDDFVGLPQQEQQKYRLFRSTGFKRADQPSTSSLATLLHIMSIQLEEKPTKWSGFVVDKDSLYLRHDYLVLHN

Turning to `Nc1nc(=O)[nH]cc1F` [5-FC, 5-fluorocytosine, reference compound], in the series on C. neoformans H99, the MIC (usually the smallest concentration in the dilution series that meets the test's criterion for growth inhibition) amounted to 8.1 mg/L. For the same compound, the MIC-comb in the series on C. neoformans H99 (combination 6G-318S + 5-FC, well D6) was found to be 2.025 mg/L. Moreover, in the series on C. neoformans, the “reduction of MIC of known antifungal on addition of 6G-318S” value (from here on “reduction of MIC of known antifungal”) is listed as 2 fold.
As to `O=C(Nc1ccc(F)cc1F)c1nnsc1S(=O)(=O)c1ccc(Cl)cc1` [6G-319S, 5-((4-Chlorophenyl)sulfonyl)-N-(2,4-difluorophenyl)-1,2,3-thiadiazole-4-carboxamide], the “inhibition of papain protease activity” value at papain is on record as “neither 6G-318S, 6G-319S, nor cisplatin significantly inhibited”. Moreover, in the series on trypsin, the “inhibition of trypsin protease activity” value is listed as “neither 6G-318S, 6G-319S, nor cisplatin significantly inhibited”. Further, the figures for the MIC in the series with Candida albicans and with C. neoformans H99 strain were 20.8 mg/L (≈ 50 µM) and 1.3 mg/L (≈ 3.13 µM), respectively. In addition, in “in vitro”, the CC50 (as a rule, the concentration that lowers cell viability or growth by half) at 48 h is 44.9 µg/mL and ~108 µM. At Prp8 intein (compound at 20 μM, read-out: inhibition of the GFP-Prp8i signal / Prp8 intein splicing), the inhibition at 20 µM is > 50%. In addition, inhibition at Prp8 intein (split GFP-Prp8 intein splicing) was half-maximal at 9.7 µM (IC50).
Consider `CCCCCOc1ccc(-c2ccc(-c3ccc(C(=O)N[C@H]4C[C@@H](O)[C@@H](O)NC(=O)[C@@H]5[C@@H](O)[C@@H](C)CN5C(=O)[C@H]([C@@H](C)O)NC(=O)[C@H]([C@H](O)[C@@H](O)c5ccc(O)cc5)NC(=O)[C@@H]5C[C@@H](O)CN5C(=O)[C@H]([C@@H](C)O)NC4=O)cc3)cc2)cc1` [AND, Anidulafungin] ({pTerphenylCO(4''-OnC5H11)}-[Orn(4R-OH,5R-OH)]T[Hyp][hTyr(3S-OH,4S-OH)]T[Pro(3S-OH,4S-Me)]; lactam 1-C), for which, in the series with C. neoformans, the “reduction of MIC of known antifungal” value is “did not change”.
Take `C[C@@H]1[C@H](O)[C@@H](C)/C=C/C=C/C=C/C=C/C=C/C=C/C=C/[C@H](O[C@@H]2O[C@H](C)[C@@H](O)[C@H](N)[C@@H]2O)C[C@@H]2O[C@](O)(C[C@@H](O)C[C@@H](O)[C@H](O)CC[C@@H](O)C[C@@H](O)CC(=O)O[C@H]1C)C[C@H](O)[C@H]2C(=O)O` [AmB, amphotericin B, reference compound]: the MIC-alone in the series with C. neoformans H99 (C. neoformans H99, 48 h, 90% inhibition) worked out at 0.578 mg/L. Besides, the MIC-comb in the series with C. neoformans H99 (combination 6G-318S + AmB, well F6) was found to be 0.144 mg/L. Further, the “reduction of MIC of known antifungal” value in the series with C. neoformans is “more than 4 fold”.
In the case of `CC[C@H](C)C[C@H](C)CCCCCCCCC(=O)N[C@H]1C[C@@H](O)[C@@H](NCCN)NC(=O)[C@@H]2[C@@H](O)CCN2C(=O)[C@H]([C@H](O)CCN)NC(=O)[C@H]([C@H](O)[C@@H](O)c2ccc(O)cc2)NC(=O)[C@@H]2C[C@@H](O)CN2C(=O)[C@H]([C@@H](C)O)NC1=O` [CAS, Caspofungin], in the series with C. neoformans, the “reduction of MIC of known antifungal” value is on record as “did not change”.
As for `OC(Cn1cncn1)(Cn1cncn1)c1ccc(F)cc1F` [FZ, fluconazole], the “reduction of MIC of known antifungal” value with C. neoformans was “did not change”.
With `CCC(C)n1ncn(-c2ccc(N3CCN(c4ccc(OCC5COC(Cn6cncn6)(c6ccc(Cl)cc6Cl)O5)cc4)CC3)cc2)c1=O` (stereo not drawn) [IZ, itraconazole, reference compound], the MIC with C. neoformans H99 turned out to be 0.176 mg/L. For the same compound, in the series on C. neoformans H99 (combination 6G-318S + IZ, well D6), the MIC-comb was found to be 0.088 mg/L. Further, in the series with C. neoformans, the “reduction of MIC of known antifungal” value is 2 fold.
On to `CCCCCOc1ccc(-c2cc(-c3ccc(C(=O)N[C@H]4C[C@@H](O)[C@@H](O)NC(=O)[C@@H]5[C@@H](O)[C@@H](C)CN5C(=O)[C@H]([C@H](O)CC(N)=O)NC(=O)[C@H]([C@H](O)[C@@H](O)c5ccc(O)c(OS(=O)(=O)O)c5)NC(=O)[C@@H]5C[C@@H](O)CN5C(=O)[C@H]([C@@H](C)O)NC4=O)cc3)no2)cc1` [MF, Micafungin] (X1-[Orn(4R-OH,5R-OH)]T[Hyp][hTyr(3S-OH,4S-OH,3'-OSO3H)][Gln(3R-OH)][Pro(3S-OH,4S-Me)]; lactam 1-C), for which, in the series with C. neoformans, the “reduction of MIC of known antifungal” value is “did not change”.
On the same count and under the same terms, for `CC[C@@H]([C@H](C)O)n1ncn(-c2ccc(N3CCN(c4ccc(OC[C@@H]5CO[C@@](Cn6cncn6)(c6ccc(F)cc6F)C5)cc4)CC3)cc2)c1=O` [PZ, Posaconazole] the value was “did not change”.
Turning to `C[C@@H](c1ncncc1F)[C@](O)(Cn1cncn1)c1ccc(F)cc1F` [Vor, Voriconazole, reference compound], the MIC with C. neoformans H99 came to 0.044 mg/L. The MIC-comb with C. neoformans H99 (combination 6G-318S + Vor, well G3) came to 0.087 mg/L. Also, the “reduction of MIC of known antifungal” value with C. neoformans worked out at 2 fold.
